Test results from patent US10081662B2, “Modified relaxin B chain peptides” (The Florey Institute of Neuroscience and Mental Health, priority 2014, dated 2018).
Peptide text beside a SMILES is read from it.

Columns and labels:
MMP-2 = MMP-2 expression by gelatin zymography in rat renal myofibroblasts; type: cell-based; settings: 16.80 nM, gelatin zymography and densitometry
Experimental: Renal myofibroblast cells natively expressing human RXFP1 were plated out onto 12-well plates with a density of 50 000 cells per well. Cells were treated with 16.8 nM H2-relaxin and 16.80 nM B7-33 C11.23S. Expression of basal MMP-2 levels was monitored with no treatment applied to wells (control). Each treatment was carried out in duplicates (n=5), for each replicate in Dulbecco's modified Eagle's medium (DMEM) containing 10% fetal calf serum, 2.2% HEPES buffer, 1% L-glutamine and 2% penicillin/strepticillin. The cells were incubated over 48 hrs in a humidified chamber with 5% CO2 at 37.8° C. temperature. Following this, media was aspirated off and experiment continued in serum free media (DMEM containing 2.2% HEPES buffer, 1% L-glutamine, 2% penicillin/strepicillin and 2% lactalbumin hydrolysate) for a further 24 hours in a humidified chamber with 5% CO2 at 37.8° C. […]. Media were then collected from various treatments and gel zymography was carried out.
For determination of MMP-2 expression within various treatments, zymographic assays of gelatinases were carried out. […] (0.05M Tris-HCl pH 7.4, 0.01M CaCl2, 5% Triton X-100, 0.02% sodium azide, 1 μM ZnCl2. The gels were then stained with 0.1% Cootnassie blue containing 40% 2-propanol and destained with 7% acetic acid before analysed by ImageJ software.

RXFP1 = biological target: T1, RXFP1 (Homo sapiens, UniProt Q9HBX9); test: Eu-labelled H2 relaxin competition binding, whole HEK-293T cells stably transfected with RXFP1; settings: RXFP1-expressing cells, Eu-labelled H2 relaxin; FIG. 2A
T1 construct: expressed in transfected cells; host or cells: HEK-293T
T1 sequence (Q9HBX9 1-757): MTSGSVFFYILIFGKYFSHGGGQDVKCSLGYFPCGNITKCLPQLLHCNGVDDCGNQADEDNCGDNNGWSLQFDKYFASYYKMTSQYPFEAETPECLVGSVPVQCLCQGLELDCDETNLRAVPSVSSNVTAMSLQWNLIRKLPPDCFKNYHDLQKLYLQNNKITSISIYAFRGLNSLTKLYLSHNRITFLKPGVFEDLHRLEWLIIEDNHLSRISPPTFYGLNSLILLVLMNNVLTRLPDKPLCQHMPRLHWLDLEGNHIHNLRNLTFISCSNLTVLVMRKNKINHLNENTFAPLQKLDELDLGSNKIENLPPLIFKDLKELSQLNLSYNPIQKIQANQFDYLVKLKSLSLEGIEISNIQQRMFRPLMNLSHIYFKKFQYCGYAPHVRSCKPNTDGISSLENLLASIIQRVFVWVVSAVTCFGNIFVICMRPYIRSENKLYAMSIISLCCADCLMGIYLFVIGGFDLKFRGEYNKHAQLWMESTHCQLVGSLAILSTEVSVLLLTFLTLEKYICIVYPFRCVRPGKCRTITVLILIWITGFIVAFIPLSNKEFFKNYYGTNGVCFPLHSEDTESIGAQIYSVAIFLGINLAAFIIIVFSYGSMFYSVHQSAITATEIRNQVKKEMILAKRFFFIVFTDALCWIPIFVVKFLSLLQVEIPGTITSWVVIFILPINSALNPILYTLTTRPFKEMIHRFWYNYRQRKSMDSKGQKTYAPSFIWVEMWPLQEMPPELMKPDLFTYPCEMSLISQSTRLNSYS
Experimental: Human embryonic kidney (HEK-293T) cells stably transfected with RXFP1 were cultured in RPMI 1640 medium supplemented with 10% fetal calf serum, 100 μg/ml penicillin, 100 μg/ml streptomycin and 2 mM L-glutamine and plated into 96-well pre-coated with poly-L-lysine for whole cell binding assays. Competition binding experiments were conducted with Eu^3+-labelled H2 relaxin (as per Shabanpoor et al., 2012, Biochem Biophys Res Commun. 420, 253-256) in the absence or presence of increasing concentrations of unlabelled relaxin-2 B chain derivatives. Nonspecific binding was determined with an excess of unlabelled peptides (500 nM H2 relaxin). Fluorescent measurements were recorded at an excitation wavelength of 340 nm and emission of 614 nm on a Victor plate reader (Perkin-Elmer Inc.). […] Statistical differences in pIC50 values were analyzed using one-way analysis of variance coupled to Newman Keul's multiple comparison test for multiple group comparisons in GraphPad Prism 6.

ERK1/2 = ERK1/2 phosphorylation (AlphaScreen SureFire) in rat renal myofibroblasts endogenously expressing RXFP1; type: cell-based
Experimental: The inventors then tested the single chain B7-33 C11.23S relaxin-2 peptide for its ability to signal via different pathways, cAMP (see Example 2) and pERK.1/2 on HEK-293T (cells stably expressing RXFP1) and myofibroblast cells (cells endogenously expressing RXFP1) The cAMP assay was conducted as described in Example 2. Phosphorylation of ERK1/2 was determined using AlphaScreen SureFire® assay which is a proprietary, non-radioactive and non-Western proximity assay that relies on singlet oxygen energy transfer (PerkinElmer Inc.). Rat renal fibroblasts (that endogenously express RXFP1 receptor) were seeded into a 96-well plate at a density of 40,000 cells per well and incubated overnight in complete media to allow cell adhesion. Cells were then serum-starved for 4-6 hours followed by native H2 relaxin (100 nM) or B7-33 C11.23S peptide (100 nM) treatment for periods of up to 20 minutes and ERK1/2 activation was quantified using the phospho-ERK1/2 Surefire AlphaScreen kit.

CC[C@H](C)[C@H](NC(=O)[C@H](C)NC(=O)[C@@H](NC(=O)[C@H](CCC(N)=O)NC(=O)[C@H](C)NC(=O)[C@H](CCCNC(=N)N)NC(=O)[C@@H](NC(=O)[C@H](CC(C)C)NC(=O)[C@H](CCC(=O)O)NC(=O)[C@H](CCCNC(=N)N)NC(=O)CNC(=O)[C@H](CO)NC(=O)[C@H](CC(C)C)NC(=O)[C@H](CCCCN)NC(=O)[C@@H](NC(=O)[C@@H](N)C(C)C)[C@@H](C)CC)C(C)C)[C@@H](C)CC)C(=O)N[C@@H](CO)C(=O)NCC(=O)N[C@@H](CCSC)C(=O)N[C@@H](CO)C(=O)N[C@H](C(=O)N[C@@H](Cc1c[nH]c2ccccc12)C(=O)N[C@@H](CO)C(=O)N[C@@H](CCCCN)C(=O)N[C@@H](CCCNC(=N)N)C(=O)N[C@@H](CO)C(=O)N[C@@H](CC(C)C)C(N)=O)[C@@H](C)O [B7-33 C11.23S] (H-VIKLSGRELVRAQIAISGMSTWSKRSL-NH2)
Induction of MMP-2 expression (MMP-2): levels similar to those induced by the native H2 relaxin
Binding to RXFP1 (in words) (RXFP1): binds RXFP1, but with lower affinity than H2 relaxin
pERK potency in rat renal myofibroblast (in words) (ERK1/2; rat renal myofibroblasts natively expressing RXFP1, FIG. 4): very high pERK potency
Time of peak ERK1/2 activation after peptide treatment (ERK1/2; rat renal myofibroblasts, 100 nM peptide): 5 min
ERK1/2 activation, level of efficacy (ERK1/2; rat renal myofibroblasts, 100 nM peptide, up to 20 minutes, FIG. 4): slightly higher level of efficacy as H2 relaxin
